Biological target: HtpG (Escherichia coli, UniProt P0A6Z3)
Assay: SAXS radius of gyration titration, closed-state accumulation
Type: binding

HtpG, sequence (P0A6Z3 whole entry): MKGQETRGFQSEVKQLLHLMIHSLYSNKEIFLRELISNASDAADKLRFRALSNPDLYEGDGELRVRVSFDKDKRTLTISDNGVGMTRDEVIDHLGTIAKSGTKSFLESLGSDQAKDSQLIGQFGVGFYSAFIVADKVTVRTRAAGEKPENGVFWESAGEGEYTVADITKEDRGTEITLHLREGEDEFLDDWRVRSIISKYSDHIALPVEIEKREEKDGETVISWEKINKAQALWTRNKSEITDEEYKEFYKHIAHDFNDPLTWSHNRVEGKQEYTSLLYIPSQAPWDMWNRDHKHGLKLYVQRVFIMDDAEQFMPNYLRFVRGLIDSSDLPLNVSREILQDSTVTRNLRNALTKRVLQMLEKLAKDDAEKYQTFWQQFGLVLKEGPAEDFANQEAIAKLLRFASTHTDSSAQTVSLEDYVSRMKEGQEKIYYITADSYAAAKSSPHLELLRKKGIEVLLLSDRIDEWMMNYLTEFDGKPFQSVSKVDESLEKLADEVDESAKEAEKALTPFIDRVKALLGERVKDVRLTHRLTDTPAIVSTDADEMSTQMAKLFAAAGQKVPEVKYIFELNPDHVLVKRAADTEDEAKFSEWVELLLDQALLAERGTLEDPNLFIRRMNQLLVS

Work on Nc1ncnc2c1ncn2[C@@H]1O[C@H](COP(=O)(O)OP(=O)(O)NP(=O)(O)O)[C@@H](O)[C@H]1O [AMPPNP] yielded a Kd of 12 to 15 µM.

From publication PMC5610941 (Journal of molecular biology, 2017)
